Reference: patent publication US20040137082A1, “Compounds and methods for reducing myostatin concentration” (priority 2003, published 2004)

Test system: myostatin protein
Assay: Column chromatography of muscle homogenate over Cystoseira canariensis fractions in place of the heparin column, eluate read by SDS-PAGE and Western blot
Assay type: binding, human
Conditions: fraction used as column in place of heparin, plus sepharose; crude muscle homogenate
Description: The testing involved the use of column chromatography analysis of Cystoseira canariensis fractions made as described herein. In the initial testing, the method described by Se-Jin-Lee and Alexandra McPherron, “Regulation of Myostatin Activity and Muscle Growth,” Proc. Nat'l Acad. Sci., Vol. 98, No. 16, pp. 9306-9311 (2001) (FIG. 1), was followed. FIG. 2 hereof provides an illustration of the experimental apparatus used. […]
Protein sodium dodecyl sulfate-polyacrylamide gel electrophoresis (“SDS-PAGE”) was performed with gradient gel from 10 to 20% acrylamide concentrations described by Laemmli UK, “Cleavage of Structural Proteins During 15 Assembly of the Head of Bacteriophage T4,” Nature, 227: 680-685 (1970). […] The supernatant fraction of each sample was removed and used to determine protein concentration by measuring absorbance at 280 nanometers (nm). […]
After transfer, membranes were blocked in buffer containing 0.5% Tween-20, 0.2% gelatin, and 3.0% dry milk (blocking buffer) for at least 1 hour at room temperature. […] The relative concentration of myostatin protein in each sample was determined by scanning densitometry. […]

## heparin
  affinity to myostatin (anti-myostatin Western blot of protein eluted from the chromatography column): cross-recognized 36-37 kDa protein
